# Legend:
# dopaminergic neurons = test: MPTP mouse model, dopaminergic neuronal damage (TH immunoblotting, TH immunohistochemistry); type: in vivo; conditions: peptide 6 μmol/kg i.p. twice a day for 12 days
# Method: C57BL/6 mice were i.p. injected with 30 mg/kg parkinsonian toxin MPTP (or saline as control), once per day for 5 consecutive days, to induce dopaminergic neuron damage. The effects of MPTP administration on mouse rotarod performance and damage to dopaminergic neurons were then analyzed 1 week after the last injection of MPTP. To determine the effect of α-synuclein knockdown in protecting dopaminergic neurons against MPTP, the Tat-βsyn-degron peptide or its control Tat-βsyn (6 μmol/kg; i.p.) was used in some animals twice a day for 12 days, beginning the first day of MPTP injection. […] The striatum is a region that receives dopaminergic neuronal projections from the substantia nigra and is also deeply affected in PD. Consistent with the specific neurotoxic effects of MPTP on dopaminergic neurons, in mice receiving MPTP injection alone there was a significant loss of protein TH in both dopaminergic neurons in the substantia nigra-containing ventral midbrain (FIGS. 6a and 6c) and dopaminergic neuronal terminals in the striatum (FIGS. 6d and 6f). […] As expected, the specific knockdown of α-synuclein by Tat-βsyn-degron protected against MPTP-induced dopaminergic neuronal injury (FIGS. 6c and 6f).
# C57BL/6 mice (20-25 g) received intraperitoneal (i.p.) injection of 30 mg/kg parkinsonian toxin MPTP hydrochloride once a day for 5 days to induce dopaminergic neuron death in the substantia nigra, while the control mice received equal volumes of saline injection. 6 μmol/kg Tat-βsyn-degron peptide or control Tat-βsyn peptide was i.p. injected into the MPTP-treated mice every 12 hrs from the first day of MPTP injection until 7 days after the last injection of MPTP. All groups of mice then underwent a rotarod test before they were sacrificed.
# Brain tissues or cultured cells were lysed on ice in the lysis buffer and then the solution was centrifuged at 14,000 rpm for 10 min at 4° C. Next, the supernatant was collected and protein concentrations were determined using a BCA protein assay kit (Thermo Scientific, 23227). Equal amount of protein samples was mixed with 4× sample buffer, boiled at 100° C. for 5 min, and separated on 10% sodium dodecyl sulphate-polyacrylamide gel electrophoresis (SDS-PAGE). Proteins were then transferred to Immobilon-PTM polyvinylidene fluoride (PVDF) membranes (Bio-Rad, 162-0177). The membranes were blocked with 5% non-fat milk in Tris-buffered saline containing 0.1% Tween-20 (TBST) for 1 hr at room temperature, and then incubated overnight at 4° C. with primary antibody. After washing 3×5 min in TBST, membranes were incubated with horseradish peroxidase-conjugated secondary antibody for 1 hr at room temperature. After another three washes with TBST, protein was visualized in the Bio-Rad Imager using ECL western blotting substrate (Pierce, 32016). The band density of each protein was quantified by the Bio-Rad Quantity One software and the relative optical density was analyzed relative to the loading control β-actin on the same membrane.
# C57BL/6 mice were anesthetized with 1.5 g/kg urethane (Sigma, U2500) and then perfused with 0.9% saline and 4% paraformaldehyde. Brains were removed and fixed in 4% paraformaldehyde for 24 hrs before being transferred to 30% sucrose/PBS solution for cryoprotection. The brains were then sectioned into 30 μm slices using a Leica cryostat. After blocking and permeabilization using a PBS solution containing 1% BSA and 0.2% Triton X-100 for 30 min at room temperature, the brain slices were incubated with anti-TH antibody (1:800 dilution) for 3 days at 4° C. Finally, the TH-positive neurons in the substantia nigra and TH-positive neuronal terminals in the striatum were stained using the anti-mouse Ig HRP detection kit (BD Transduction Laboratories, 551011) according to manufacturer's instruction, and visualized under Zeiss Axio Observer D1 microscope. […]
# 14-3-3 = 14-3-3 level in cortical cultures, immunoblot; type: cell-based, rat; conditions: 50 μM, 24 hrs
# Method: Primary rat neuron cultures were prepared from embryos of pregnant Sprague-Dawley rats (E18). The experimental protocol was approved by the University of British Columbia Animal Care Committee. Briefly, the cortical tissue or ventral midbrain tissue was isolated into ice cold HBSS (Invitrogen, 14170-112) and then digested with 0.25% trypsin-EDTA at 37° C. for 30 min. After washing with warm DMEM (supplemented with 10% FBS) three times, neurons were suspended in neuron culture media and dissociated by trituration using varying sizes of pipettes. Neurons were then centrifuged, and the pellet was re-suspended in culture media, washed twice with culture media, and plated on the poly-D-lysine-coated plates. Neuron culture was maintained in the 37° C. incubator with 95% O2 and 5% CO2. The morning after culturing, 2/3 of the neuron culture media was replaced with fresh neuron culture media. Media was then replaced every 3-4 days. […]
# Brain tissues or cultured cells were lysed on ice in the lysis buffer and then the solution was centrifuged at 14,000 rpm for 10 min at 4° C. Next, the supernatant was collected and protein concentrations were determined using a BCA protein assay kit (Thermo Scientific, 23227). […] The band density of each protein was quantified by the Bio-Rad Quantity One software and the relative optical density was analyzed relative to the loading control β-actin on the same membrane.
# [1] = MPTP 30 mg/kg x5 days, immunoblot
sequence,measurement,setting,value
YGRKKRRQRRRRTKSGVYLVGRRRG (The sequence is synthesized (YGRKKRRQRRRRTKSGVYLVGRRRG)) [Tat-βsyn-degron],TH protein level in striatum after MPTP,dopaminergic neurons; [1],protected against the MPTP-induced decrease in the level of TH protein
same,TH protein level in ventral midbrain after MPTP,dopaminergic neurons; [1],protected against the MPTP-induced decrease in the level of TH protein
same,"MPTP-induced dopaminergic neuronal damage (overall, FIG. 6 and FIG. 7a-d)",dopaminergic neurons,largely protected
same,density of dopaminergic neuronal terminals in the striatum after MPTP,dopaminergic neurons; TH densitometry,protected against MPTP-induced decrease
same,number of dopaminergic neurons in the substantia nigra pars compacta after MPTP,dopaminergic neurons; blinded TH neuron counting,protected against MPTP-induced decrease in the number of dopaminergic neurons
same,expression level of 14-3-3,14-3-3,did not affect the expression levels
